According to patent publication US6765010B2, “Compositions and methods for enhancing analgesic potency of tramadol and attenuating its adverse side effects” (Pain Therapeutics, Inc., priority 1999, dated 2004):
Entries after “also recorded” stand apart in the source; their conditions may differ. Like-named read-outs stand apart in the source and are kept apart here.

What was measured:
human volunteers = conditions: yohimbine 0.1 mg/kg IV; 100 mg tramadol orally; cited from earlier work
[1] = test system: excitatory opioid receptors on DRG neurons; format: cell-based, mouse
DRG neurons = format: cell-based, mouse
mice [2] = assay: Warm-water (55° C.) tail-flick assay, antinociception; format: in vivo, mouse
mice [3] = assay: Acute physical dependence assay: naloxone-precipitated withdrawal jumping; format: in vivo, mouse; conditions: for effect on naloxone-precipitated withdrawal jumping: co-treatment 4 hours with 100 mg/kg morphine s.c. plus low dose antagonist
[4] = test system: dorsal root ganglion (DRG) neurons; format: cell-based, mouse
mice [5] = conditions: morphine 20-50 mg/kg s.c. twice daily 4 days alone or + naltrexone 10 μg/kg s.c.; n=30
mice [6] = conditions: at 30 minutes; n=10

COC(=O)[C@@H]1[C@H]2C[C@H]3c4[nH]c5ccccc5c4CCN3C[C@@H]2CC[C@@H]1O [yohimbine]
reduction of tramadol-induced analgesia (human volunteers): ≥ 89%

O=C1CC[C@@]2(O)[C@H]3Cc4ccc(O)c5c4[C@@]2(CCN3CC2CC2)[C@H]1O5 [naltrexone]
blockade of excitatory APD prolongation by bimodally-acting opioid agonists [1]: remarkably effective in blocking excitatory APD-prolonging effects
effect on morphine's APD effects [1]: blocks both inhibitory as well as excitatory effects of morphine
selective antagonism of excitatory APD-prolonging effects at excitatory opioid receptors [1]: act selectively as antagonists; also recorded: selectively blocked
excitatory APD prolongation (supersensitivity) after chronic co-treatment (DRG neurons): did not evoke the usual excitatory APD prolongation
tolerance to inhibitory effects of opioids after chronic co-treatment (DRG neurons): no evidence of tolerance
analgesic effects of antagonist alone (mice [2]; 10 ng/kg i.p.): did not elicit analgesic effects
analgesic effects of antagonist alone (mice [2]; 0.1 μg/kg): did not elicit analgesic effects
effect on naloxone-precipitated withdrawal jumping (mice [3]): attenuates naloxone-precipitated withdrawal-jumping

CN1CC[C@]23c4c5ccc(O)c4O[C@H]2[C@@H](O)C=C[C@H]3[C@H]1C5 [morphine]
APD during application [4]: prolonged
alteration of the APD of DRG neurons [4]: prolong the APD
peak tail-flick latencies (mice [2]; 100 mg/kg morphine alone or + 10 μg/kg naltrexone, cutoff value): 10 s
mice showing naloxone-precipitated jumping (mice [3]; 100 mg/kg morphine s.c. alone or + naltrexone 10 μg/kg, naloxone 10 mg/kg i.p. 3-4 h later, n=30): About 67%
mice showing naloxone-precipitated jumping (mice [5]): About 60%
antinociception after acute 1 mg/kg morphine, 1 day after drug withdrawal (mice [6]): 3%±2%

C=C1CC[C@@]2(O)[C@H]3Cc4ccc(O)c5c4[C@@]2(CCN3CC2CC2)[C@H]1O5 [nalmefene]
enhancement of morphine antinociceptive potency compared with naltrexone (mice [2]; 1 ng/kg nalmefene): as effective as 10 ng/kg naltrexone
effect on morphine's antinociceptive potency (mice [2]; 3 mg/kg morphine + 1-100 ng/kg nalmefene i.p., 10 mice): enhances morphine's antinociceptive potency
attenuation of morphine dependence liability compared with naltrexone (mice [3]; 1 μg/kg nalmefene, n=10): may even be more effective than naltrexone
effect on naloxone-precipitated withdrawal jumping (mice [3]): attenuates naloxone-precipitated withdrawal-jumping
